Data set [1] has as its system lymphoblasts. The data set can be described thus: Propidium iodide staining of lymphoblasts treated with GCT siRNA, with or without etoposide. Format: cell-based, human. The method, then:
Propidium iodide (PI) staining. Lymphoblasts (treated with GCT siRNA vs. control siRNA) were treated vs. not treated with etoposide and stained with propidium iodide (PI). The percentage of PI positive cells was counted in each.

Data set [2] relates to CLN3 knockdown NT2 cells. The data set is described as follows: Cell proliferation rate in CLN3 knockdown NT2 cells, Trypan blue dye exclusion. Format: cell-based, human. The following applies: NT2 cells, 3 days post-transfection, vs WT-NT2. On the procedure:
(§1) Cell Culture and Cell Treatment. NT2 neuronal precursor cells (ATCC cat no. CRL 1973) were grown in DMEM supplemented with 1% sodium pyruvate, L-glutamine and antibiotics and incubated in 37 C and 5% CO2 for 3 days.
(§2) siRNA knockdown of CLN3 in NT2 cells. HS1 siRNA ([…]) for CLN3 knockdown was designed using BLOCK-iT RNA™ Designer (Invitrogen). […] siRNA and scrambled universal negative control siRNA oligonucleotides were transfected into wild type NT2 cells using Lipofectamine RNAiMax™ according to manufacturer's protocol. In brief, […] HS1 RNAi duplex or scrambled siRNA universal negative control were diluted in 50 μl DMEM medium without serum. Lipofectamine™ RNAiMAX was mixed gently before use, then 1 μl was diluted in 50 μl DMEM medium. The diluted RNAi duplexes were combined with the diluted Lipofectamine RNAiMAX and incubated for 10 minutes at room temperature. The RNAi duplex-Lipofectamine™ RNAiMAX complexes were added to cells for a final RNA concentration of 10 nM. […]
Determination of cell proliferation rate in CLN3 knockdown NT2 cells. 4×10^5 cells transfected with CLN3 siRNA or scrambled siRNA, and treated or not treated with 50 ng/ml GalCer, were seeded and counted with Trypan blue dye exclusion. […]
NT2 cell proliferation and apoptosis rates. An equal number of NT2 cells was initially seeded and cell number determined at different time points with Trypan blue dye exclusion. […]

In data set [3] the test system is CLN3 knockdown NT2 cells. The data set is described as follows: Cell apoptosis rate in CLN3 knockdown NT2 cells, propidium iodide. The following applies: NT2 cells, 3 days post-transfection, vs wild type. Format: cell-based, human. On the procedure: as §1
as §2, with “temperature.” for “temperature. The RNAi duplex-Lipofectamine™ RNAiMAX complexes were added to cells for a final RNA concentration of 10 nM.”
Determination of cell apoptosis rate in CLN3 knockdown NT2 cells. 10^6 cells transfected with CLN3 siRNA or scrambled siRNA, either treated with 50 ng/ml of GalCer (Avanti Polar Lipids, inc.) or solvent, are suspended in 100 μl PBS, incubated with 100 μl/0.5 mg/ml PI, washed, placed on slides and viewed using a fluorescence microscope. […] Cells in three fields of vision were counted. Percentage of red staining-apoptotic cells/total cells was determined.

Data set [4] relates to CLN3 transcript. The data set is described as follows: Real-Time PCR validation of CLN3 knockdown in NT2 cells. Format: cell-based, human. The following applies: 3 days post-transfection, vs scrambled siRNA. On the procedure: siRNA knockdown of CLN3 in NT2 cells. HS1 siRNA ([…]) for CLN3 knockdown was designed using BLOCK-iT RNA™ Designer (Invitrogen). […] siRNA and scrambled universal negative control siRNA oligonucleotides were transfected into wild type NT2 cells using Lipofectamine RNAiMax™ according to manufacturer's protocol. In brief, […] HS1 RNAi duplex or scrambled siRNA universal negative control were diluted in 50 μl DMEM medium without serum. Lipofectamine™ RNAiMAX was mixed gently before use, then 1 μl was diluted in 50 μl DMEM medium. The diluted RNAi duplexes were combined with the diluted Lipofectamine RNAiMAX and incubated for 10 minutes at room temperature. The RNAi duplex-Lipofectamine™ RNAiMAX complexes were added to cells for a final RNA concentration of 10 nM. Cells were harvested 96 hours post-transfection.
Real-Time PCR validation of CLN3 knockdown. To calculate the effect of CLN3 knockdown following siRNA transfection, RNA from NT2 cells, transfected either with CLN3 siRNA or with scrambled siRNA, was isolated using Trizol reagent (Invitrogen). Reverse transcription was carried out with SuperScript III First-Strand-Synthesis System (Invitrogen). Real Time-PCR was conducted on 500 ng cDNA using /SYBRGreen 10 Mix (Biorad, U.S.A) in a Biorad I-Cycler. […] To confirm CLN3 knockdown, change in fold expression compared to scrambled siRNA transfected control cells was calculated. […]
For orientation: Quantitative PCR measures a nucleic acid by following its amplification.

Data set [5] deals with CLN8 protein. The data set can be described thus: Protein-lipid overlay assay, CLN8 protein. Format: binding. The following applies: lysates from normal cells, custom made sphingostrips. On the procedure:
(§3) Protein-lipid overlay assay. Membrane arrays (SPHINGOSTRIPS (Echelon Research Laboratories, Salt Lake City, Utah), or lipids were spotted on nitrocellulose membranes and dried for at least one hour. Membranes were blocked with 3% (wt/vol) Fatty Acid Free or FFA-BSA (Sigma-Aldrich, St. Louis, Mo.) in Tris-Buffered Saline Tween-20 (TBST) [150 mM NaCl/10 mM Tris.HCl (pH 8.0), and 0.1% (vol/vol) Tween-20] for 1 h at RT. Blocked membranes were incubated for 8 h at 4° C. with 2 mg/ml of total cell lysate.
(§4) Fibroblasts overexpressing CLN3p (AC1 cells) and JNCL fibroblasts were used for the GalCer-CLN3 binding assay. The membranes were then washed five times for 5 min each with TBST. After washing, membranes were incubated with anti-CLN3, CLN1, CLN2, CLN6 or CLN8-antibodies overnight at 1:1000 dilution, followed by additional washing and incubation with horseradish peroxidase-conjugated anti-rabbit IgG goat antibody for 1 h at RT. After a final washing, enhanced chemiluminescence was used to detect binding of NCL proteins to sphingolipids. Intensity values were computed with an ImageJ software program.
(§5) CLN1, CLN2, CLN6, CLN8 and CLN9 proteins also bind to lipids. […]

The target of data set [6] is T1, CLN1 protein (Homo sapiens, UniProt P50897).
T1 construct: endogenous in cells
T1 sequence (P50897 28-306): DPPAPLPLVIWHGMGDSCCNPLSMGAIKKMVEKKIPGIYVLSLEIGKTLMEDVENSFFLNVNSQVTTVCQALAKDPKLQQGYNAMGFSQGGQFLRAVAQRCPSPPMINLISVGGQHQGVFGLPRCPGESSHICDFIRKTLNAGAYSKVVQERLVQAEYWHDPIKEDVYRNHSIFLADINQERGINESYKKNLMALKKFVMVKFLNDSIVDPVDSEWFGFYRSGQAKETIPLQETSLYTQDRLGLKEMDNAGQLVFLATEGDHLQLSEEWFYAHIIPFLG
The data set can be described thus: Protein-lipid overlay assay, CLN1 protein. The following applies: lysates from normal cells, custom made sphingostrips. Format: binding. The method, then:
as §3, §4, §5

Data set [7] addresses T2, CLN2 protein (Homo sapiens, UniProt O14773).
T2 construct: endogenous in cells
T2 sequence (O14773 196-563): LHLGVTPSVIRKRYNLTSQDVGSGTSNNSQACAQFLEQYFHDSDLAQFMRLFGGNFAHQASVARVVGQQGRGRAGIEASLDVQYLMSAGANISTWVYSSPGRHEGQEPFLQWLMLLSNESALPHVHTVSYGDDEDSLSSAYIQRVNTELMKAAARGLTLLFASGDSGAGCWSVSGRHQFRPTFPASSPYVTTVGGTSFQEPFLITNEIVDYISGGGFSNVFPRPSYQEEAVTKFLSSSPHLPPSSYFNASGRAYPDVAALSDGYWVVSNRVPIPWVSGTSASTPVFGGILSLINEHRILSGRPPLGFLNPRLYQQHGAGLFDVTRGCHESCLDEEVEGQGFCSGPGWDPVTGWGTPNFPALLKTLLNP
The data set can be described thus: Protein-lipid overlay assay, CLN2 protein. The settings on record: lysates from normal cells, custom made sphingostrips. Format: binding. The method, then: as §3, §4, §5

In data set [8] the target is T3, CLN6 protein (Homo sapiens, UniProt Q9NWW5).
T3 construct: endogenous in cells
T3 sequence (Q9NWW5 1-311): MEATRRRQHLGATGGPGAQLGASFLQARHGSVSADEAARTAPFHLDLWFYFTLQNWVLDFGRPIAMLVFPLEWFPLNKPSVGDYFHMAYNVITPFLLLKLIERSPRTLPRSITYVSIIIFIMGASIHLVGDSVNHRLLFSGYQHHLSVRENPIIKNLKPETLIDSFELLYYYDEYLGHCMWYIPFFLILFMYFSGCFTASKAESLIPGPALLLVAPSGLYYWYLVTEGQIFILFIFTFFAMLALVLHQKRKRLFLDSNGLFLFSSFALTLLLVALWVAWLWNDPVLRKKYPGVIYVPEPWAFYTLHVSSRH
The data set can be described thus: Protein-lipid overlay assay, CLN6 protein. Format: binding. The following applies: lysates from normal cells, custom made sphingostrips. On the procedure:
as §3, §4
CLN1, CLN2, CLN6, CLN8 and CLN9 proteins also bind to lipids. The protein-lipid overlay assay, using custom made sphingostrips, lysates from normal cells and anti-CLN1, anti-CLN2-, anti-CLN6, and anti-CLN8-antibodies, established that CLN6 and CLN8 proteins bind to GalCer, CLN1, CLN2 and CLN6p bind lysophosphatidic acid (LPA) and sulfatide, and CLN8p binds ceramide (FIG. 5).

Data set [9] addresses T4, wild-type CLN3p (Homo sapiens, UniProt Q13286).
T4 construct: expressed in transfected cells; host or cells: fibroblasts overexpressing CLN3p (AC1 cells)
T4 sequence (Q13286 1-438): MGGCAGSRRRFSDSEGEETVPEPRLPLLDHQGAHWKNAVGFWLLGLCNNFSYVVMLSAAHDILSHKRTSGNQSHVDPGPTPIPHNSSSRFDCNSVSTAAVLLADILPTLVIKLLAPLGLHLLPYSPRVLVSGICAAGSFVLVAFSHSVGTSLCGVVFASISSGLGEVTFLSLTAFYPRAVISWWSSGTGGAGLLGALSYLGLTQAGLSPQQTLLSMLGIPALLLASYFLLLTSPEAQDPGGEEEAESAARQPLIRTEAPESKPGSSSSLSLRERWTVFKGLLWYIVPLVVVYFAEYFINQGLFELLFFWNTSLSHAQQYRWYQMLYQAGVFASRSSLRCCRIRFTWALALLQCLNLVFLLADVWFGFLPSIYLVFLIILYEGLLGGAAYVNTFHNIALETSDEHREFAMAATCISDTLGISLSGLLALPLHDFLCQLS
The data set can be described thus: Protein-lipid overlay assay, wild-type CLN3p. Format: binding. The following applies: lysate of CLN3-overexpressing cells, anti-CLN3 antibody. The method, then:
as §3, §4
Binding of CLN3 to GalCer and sulfatide. Membranes impregnated with sphingolipids were overlaid with protein cell lysates from CLN3-overexpressing and JNCL cells. Anti-CLN3 antibody was used to evaluate binding. […] The signal for GalCer-wild-type CLN3p binding was weaker because the more polar sulfatide competes with the less polar GalCer for binding to wild-type CLN3p.

For data set [10], the system named is mutant CLN3p. The data set can be described thus: Protein-lipid overlay assay, mutant CLN3p (JNCL cell lysate). Format: binding, human. The settings on record: lysate of JNCL cells, anti-CLN3 antibody. On the procedure: as §3, §4
Binding of CLN3 to GalCer and sulfatide. Membranes impregnated with sphingolipids were overlaid with protein cell lysates from CLN3-overexpressing and JNCL cells. Anti-CLN3 antibody was used to evaluate binding. […]

For `COc1cc([C@@H]2c3cc4c(cc3[C@@H](O[C@@H]3O[C@@H]5CO[C@@H](C)O[C@H]5[C@H](O)[C@H]3O)[C@H]3COC(=O)[C@H]23)OCO4)cc(OC)c1O` [Etoposide, etoposide], in data set [1], the “effect of etoposide on apoptosis of GCT knockdown cells” value is reported as “augmented the effect of reduced GalCer on apoptosis”.
In data set [2], “HS1: HS1 siRNA (TCACGATTTGACTGCAACTCTG) for CLN3 knockdown (listed as DNA, chemistry not given here) [reference compound]” registered a decrease in growth of 58%. In data set [3], this compound had an increase in apoptosis of 2.4 fold. Also, the “decrease in CLN3 expression” value in data set [4] amounted to 22 fold.
Consider ceramide, for which, in data set [5], the “binding of CLN8 protein to lipid” value is recorded as “binds”.
For lysophosphatidic acid, the “binding of CLN1 protein to lipid” value in data set [6] was “bind”. Also, the “binding of CLN2 protein to lipid” value in data set [7] is “bind”. Further, in data set [8], the “binding of CLN6 protein to lipid” value is recorded as “bind”.
Take sulfatide: the “binding of wild-type CLN3p to membrane spots impregnated with the lipid” value in data set [9] is listed as “bind strongly”. Besides, in [10], the “binding of mutant CLN3 to membrane spots impregnated with the lipid” value was “failed to do so”. For the same compound, in [6], the “binding of CLN1 protein to lipid” value is listed as “bind”. The “binding of CLN2 protein to lipid” value in data set [7] is on record as “bind”. Moreover, the “binding of CLN6 protein to lipid” value in data set [8] was “bind”.

The values are drawn from US8242086B2, “Methods and compositions for treating disorders caused by a deficiency in a gene product of a CLN gene” (Duke University, priority 2008, dated 2012).
